# Results published in patent US12162888B2, “Carboxamides as ubiquitin-specific protease inhibitors” (Valo Early Discovery, Inc., priority 2018, dated 2024).
# Biological target: T1, USP25 (USP25-His6, Boston Biochem E-546) (Homo sapiens, UniProt Q9UHP3)
# T1 construct: His6 (C); purchased Boston Biochem E-546
# T1 sequence (Q9UHP3 1-1055): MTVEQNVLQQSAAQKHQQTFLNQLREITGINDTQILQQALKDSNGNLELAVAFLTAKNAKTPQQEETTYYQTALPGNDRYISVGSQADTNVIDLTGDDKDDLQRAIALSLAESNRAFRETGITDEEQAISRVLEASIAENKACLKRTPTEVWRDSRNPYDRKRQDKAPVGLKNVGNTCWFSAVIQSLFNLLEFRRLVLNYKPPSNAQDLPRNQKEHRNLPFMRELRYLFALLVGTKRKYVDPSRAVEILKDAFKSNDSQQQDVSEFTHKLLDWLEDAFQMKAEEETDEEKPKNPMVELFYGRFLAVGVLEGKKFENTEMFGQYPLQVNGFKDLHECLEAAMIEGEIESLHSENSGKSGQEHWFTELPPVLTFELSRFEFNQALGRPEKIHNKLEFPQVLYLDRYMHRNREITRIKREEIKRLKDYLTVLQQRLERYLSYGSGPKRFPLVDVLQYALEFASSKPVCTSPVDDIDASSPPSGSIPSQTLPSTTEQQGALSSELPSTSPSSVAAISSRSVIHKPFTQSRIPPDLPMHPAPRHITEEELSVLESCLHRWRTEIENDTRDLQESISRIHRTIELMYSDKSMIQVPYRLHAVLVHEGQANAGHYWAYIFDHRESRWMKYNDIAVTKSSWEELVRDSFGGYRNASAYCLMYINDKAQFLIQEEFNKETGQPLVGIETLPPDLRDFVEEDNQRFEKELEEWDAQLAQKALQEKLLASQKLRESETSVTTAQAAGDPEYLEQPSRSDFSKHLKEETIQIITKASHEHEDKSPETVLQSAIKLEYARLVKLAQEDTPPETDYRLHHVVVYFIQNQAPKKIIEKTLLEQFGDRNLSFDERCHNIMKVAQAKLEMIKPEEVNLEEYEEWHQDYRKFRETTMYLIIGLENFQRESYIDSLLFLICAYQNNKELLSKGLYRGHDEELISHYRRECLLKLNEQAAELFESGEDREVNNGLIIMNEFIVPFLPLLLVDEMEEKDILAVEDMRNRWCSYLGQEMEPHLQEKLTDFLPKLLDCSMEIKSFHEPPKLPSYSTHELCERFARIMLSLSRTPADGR
# Assay: Ubiquitin-Rhodamine 110 Assay for USP25 Activity, Example A-3
# Type: biochemical
# Conditions: Ubiquitin-Rhodamine 110 assay, Example A-3; read-out: USP25 A-3 IC50 range
# Description: Example A-3: Biochemical Assay: Ubiquitin-Rhodamine 110 Assay for USP25 Activity
# The assay was performed in a final volume of 9 μL in assay buffer containing 20 mM Tris-HCl (pH 8.0, (1M Tris-HCl, pH 8.0 solution; Corning 46-031-CM)), 3 mM BME (2-Mercaptoethanol; Sigma 63689-25ML-F), 0.03% BGG (0.22 μM filtered, Sigma, G7516-25G), and 0.01% Triton X-100 (Sigma, T9284-10L). Nanoliter quantities of 10-point, 3-fold serial dilution in DMSO was pre-dispensed into 1536 assay plates (Corning, #3724BC) for a final test concentration of 25 μM to 1.3 nM, top to lowest dose, respectively. Enzyme USP25, construct USP25-His6, (Boston Biochem E-546). Concentration and incubation times were optimized for the maximal signal-to-background while maintaining initial velocity conditions at a fixed substrate concentration. The final concentration of the enzyme in the assay was […]. Final substrate (Ub-Rh110; Ubiquitin-Rhodamine 110, R&D Systems #U-555) concentration was 25 nM with [Ub-Rh110]<<Km. 3 μL of 2× enzyme was added to assay plates (pre-stamped with compound) preincubated with […] for 30 minutes and then 3 μL of 2× Ub-Rh110 was added to assay plates. Plates were incubated for 45 minutes at room temperature before addition of 3 μL of stop solution (final concentration of 10 mM citric acid (Sigma, 251275-500G)). Fluorescence was read on the Envision (Excitation at 485 nm and Emission at 535 nm; Perkin Elmer) or on the PheraSTAR (Excitation at 485 nm and Emission at 535 nm; BMG Labtech).
# For assay formats Example A-1(a), A-1(b), and A-2, data were reported as percent inhibition compared with control wells based on the following equation: % inh=1−((FLU−AveLow)/(AveHigh−AveLow)) where FLU=measured Fluorescence, AveLow=average Fluorescence of no enzyme control (n=16), and AveHighh=average Fluorescence of DMSO control (n=16). IC50 values were determined by curve fitting of the standard 4 parameter logistic fitting algorithm included in the Activity Base software package: IDBS XE Designer Model 205. Data is fitted using the Levenburg Marquardt algorithm.
row,Compound,IC50
1,"Cc1ccc2c(N)c(C(=O)N[C@H]3CCc4nc(N5C[C@H]6CCN[C@@H](C5)C6(F)F)ccc4C3)sc2n1 [Example 368, 3-amino-N-[(6S)-2-[(1S,5R)-9,9-difluoro-2,7-diazabicyclo[3.3.1]nonan-7-yl]-5,6,7,8-tetrahydroquinolin-6-yl]-6-methylthieno[2,3-b]pyridine-2-carboxamide]",50 to 200 nM
2,"COC[C@@H]1CN(c2ccc3c(n2)OC[C@H](NC(=O)c2sc4nc(C)cc(C)c4c2N)C3)C[C@@H]1N [Example 348, 3-amino-N-[(3R)-7-[(3R,4R)-3-amino-4-(methoxymethyl)pyrrolidin-1-yl]-2H,3H,4H-pyrano[2,3-b]pyridin-3-yl]-4,6-dimethylthieno[2,3-b]pyridine-2-carboxamide]",> 2000 nM
3,"Cc1cnc2c(N)c(C(=O)N[C@H]3CCc4cc(N5CC(C(=O)O)C5)ccc4C3)sc2n1 [Example 6-4, (S)-1-(6-(7-amino-3-methylthieno[2,3-b]pyrazine-6-carboxamido)-5,6,7,8-tetrahydronaphthalen-2-yl)azetidine-3-carboxylic acid]",200 to 2000 nM
4,"CC(=O)N[C@@H]1CN(c2ccc3c(n2)CC[C@H](NC(=O)c2sc4nc(C)ccc4c2N)C3)C[C@H]1C(F)F [Example 372, 3-amino-N-[(6S)-2-[(3R,4S)-3-(difluoromethyl)-4-acetamidopyrrolidin-1-yl]-5,6,7,8-tetrahydroquinolin-6-yl]-6-methylthieno[2,3-b]pyridine-2-carboxamide]",> 2000 nM
5,"COC[C@@H]1[C@@H](N)CCN1c1ccc2c(n1)CC[C@H](NC(=O)c1sc3nc(C)ccc3c1N)C2 [Example 420, 3-amino-N-[(6S)-2-[(2S,3S)-3-amino-2-(methoxymethyl)pyrrolidin-1-yl]-5,6,7,8-tetrahydroquinolin-6-yl]-6-methylthieno[2,3-b]pyridine-2-carboxamide]",50 to 200 nM
6,"Cc1ccc2c(N)c(C(=O)N[C@H]3COc4cc(N5CC6CCC(C5)N6)c(F)cc4C3)sc2n1 [Example 104, 3-amino-N-[(3R)-7-{3,8-diazabicyclo[3.2.1]octan-3-yl}-6-fluoro-3,4-dihydro-2H-1-benzopyran-3-yl]-6-methylthieno[2,3-b]pyridine-2-carboxamide]",50 to 200 nM
7,"Cc1ccc2c(N)c(C(=O)N[C@H]3CCc4nc(N5C[C@H](CF)[C@@H](N)C5)ccc4C3)sc2n1 [Example 384, 3-amino-N-[(6S)-2-[(3R,4S)-3-amino-4-(fluoromethyl)pyrrolidin-1-yl]-5,6,7,8-tetrahydroquinolin-6-yl]-6-methylthieno[2,3-b]pyridine-2-carboxamide]",200 to 2000 nM
8,"CCn1ccc2cc(C(=O)N[C@H]3CCc4nc(N5C[C@@H](N)C6(COC6)C5)ccc4C3)cnc21 [Example 404, N-[(6S)-2-[(8S)-8-amino-2-oxa-6-azaspiro[3.4]octan-6-yl]-5,6,7,8-tetrahydroquinolin-6-yl]-1-ethyl-1H-pyrrolo[2,3-b]pyridine-5-carboxamide]",> 2000 nM
9,"COC[C@@]1(N)CCN(c2ccc3c(n2)CC[C@H](NC(=O)c2sc4nc(C)ccc4c2N)C3)C1 [Example 388, 3-amino-N-[(6S)-2-[(3R)-3-amino-3-(methoxymethyl)pyrrolidin-1-yl]-5,6,7,8-tetrahydroquinolin-6-yl]-6-methylthieno[2,3-b]pyridine-2-carboxamide]",200 to 2000 nM
10,"Cc1ccc2c(N)c(C(=O)N[C@H]3CCc4nc(N5C[C@@H](N)[C@H](C(F)(F)F)C5)ccc4C3)sc2n1 [Example 364, 3-amino-N-[(6S)-2-[(3S,4R)-3-amino-4-(trifluoromethyl)pyrrolidin-1-yl]-5,6,7,8-tetrahydroquinolin-6-yl]-6-methylthieno[2,3-b]pyridine-2-carboxamide]",> 2000 nM
11,Cc1ccc2c(N)c(C(=O)N[C@H]3CCc4nc(N5C[C@H]6COC[C@@H](C5)[C@H]6N)ccc4C3)sc2n1 [Example 396],200 to 2000 nM
12,"Cc1ccc2c(N)c(C(=O)N[C@H]3CCc4nc(N5CC[C@](N)(CO)C5)ccc4C3)sc2n1 [Example 386, 3-amino-N-[(6S)-2-[(3R)-3-amino-3-(hydroxymethyl)pyrrolidin-1-yl]-5,6,7,8-tetrahydroquinolin-6-yl]-6-methylthieno[2,3-b]pyridine-2-carboxamide]",200 to 2000 nM
13,"CCn1ccc2cc(C(=O)N[C@H]3CCc4nc(N5C[C@H](C(F)F)[C@@H](N)C5)ccc4C3)cnc21 [Example 370, N-[(6S)-2-[(3R,4S)-3-amino-4-(difluoromethyl)pyrrolidin-1-yl]-5,6,7,8-tetrahydroquinolin-6-yl]-1-ethyl-1H-pyrrolo[2,3-b]pyridine-5-carboxamide]",200 to 2000 nM
14,"CCn1ccc2cc(C(=O)N[C@H]3CCc4nc(N5C[C@@H](N)[C@H](C(F)F)C5)ccc4C3)cnc21 [Example 371, N-[(6S)-2-[(3S,4R)-3-amino-4-(difluoromethyl)pyrrolidin-1-yl]-5,6,7,8-tetrahydroquinolin-6-yl]-1-ethyl-1H-pyrrolo[2,3-b]pyridine-5-carboxamide]",> 2000 nM
15,"Cc1ccc2c(N)c(C(=O)N[C@H]3CCc4nc(N5C[C@H](C(F)F)[C@@H](N)C5)ncc4C3)sc2n1 [Example 380, 3-amino-N-[(6S)-2-[(3R,4S)-3-amino-4-(difluoromethyl)pyrrolidin-1-yl]-5,6,7,8-tetrahydroquinazolin-6-yl]-6-methylthieno[2,3-b]pyridine-2-carboxamide]",> 2000 nM
16,"CCn1ccc2cc(C(=O)N[C@H]3CCc4nc(N5C[C@H](NC)[C@@H](OC)C5)ccc4C3)cnc21 [Example 402, 1-ethyl-N-[(6S)-2-[(3S,4S)-3-methoxy-4-(methylamino)pyrrolidin-1-yl]-5,6,7,8-tetrahydroquinolin-6-yl]-1H-pyrrolo[2,3-b]pyridine-5-carboxamide]",> 2000 nM
17,"Cc1ccc2c(N)c(C(=O)N[C@@H]3CCc4nc(N5C[C@H](C(F)F)[C@@H](N)C5)ncc4C3)sc2n1 [Example 383, 3-amino-N-[(6R)-2-[(3R,4S)-3-amino-4-(difluoromethyl)pyrrolidin-1-yl]-5,6,7,8-tetrahydroquinazolin-6-yl]-6-methylthieno[2,3-b]pyridine-2-carboxamide]",> 2000 nM
18,"Cc1ccc2c(N)c(C(=O)N[C@@H]3CCc4nc(N5C[C@@H](N)[C@H](C(F)F)C5)ncc4C3)sc2n1 [Example 382, 3-amino-N-[(6R)-2-[(3S,4R)-3-amino-4-(difluoromethyl)pyrrolidin-1-yl]-5,6,7,8-tetrahydroquinazolin-6-yl]-6-methylthieno[2,3-b]pyridine-2-carboxamide]",> 2000 nM
19,Cc1ccc2c(N)c(C(=O)N[C@H]3CCc4nc(N5C[C@H]6COC[C@@H](C5)[C@@H]6N)ccc4C3)sc2n1 [Example 397],200 to 2000 nM

# Same assay, conditions: biochemical IC50 range, Ubiquitin-Rhodamine 110 assay, Example A-3; read-out: USP25 A-3
row,Compound,IC50
1,"Cc1ccc2c(N)c(C(=O)N[C@H]3COc4cc(N5CCNCC5)cc(F)c4C3)oc2n1 [Example 169, 3-amino-N-[(3R)-5-fluoro-7-(piperazin-1-yl)-3,4-dihydro-2H-1-benzopyran-3-yl]-6-methylfuro[2,3-b]pyridine-2-carboxamide]",> 2000 nM
